# pIC50: −log10 of the molar value.
# Test system: MDA-MB-231
# Assay: cells
# Type: functional, cell-based
# Conditions: Homo sapiens
# Description: Inhibition of MDA-MB-231 cell proliferation (mean of two experiments)
row,pIC50,Compound
1,6.68,O=C(NO)c1ccc(-c2ccc(CCNCc3ccccc3)cn2)s1
2,6.70,O=C(NO)c1ccc(-c2ccc(CNCCc3ccccc3)cn2)s1
3,6.43,CN(Cc1ccccc1)Cc1ccc(-c2ccc(C(=O)NO)s2)nc1
4,6.52,O=C(NO)c1ccc(-c2ccc(CNCCOc3ccccc3)cn2)s1
5,6.20,O=C(NO)c1ccc(-c2ccc(CNc3ccccc3)cn2)s1
6,5.45,O=C(NO)c1ccc(-c2ccc(NCCc3ccccc3)cn2)s1
7,6.52,O=C(NO)c1ccc(-c2ccc(CNCc3ccc(Cl)cc3)cn2)s1
8,6.07,O=C(NO)c1ccc(-c2ccc(CN3CCc4ccccc4C3)cn2)s1
9,4.96,O=C(NO)c1ccc(-c2ccccn2)s1
10,6.60,O=C(NO)c1ccc(-c2ccc(CNCCCc3ccccc3)cn2)s1

# Biological target: Histone deacetylase 1 (Homo sapiens, UniProt Q13547)
# Assay: Inhibition of HDAC activity measured by HDAC Fluorescent Activity Assay (mean of two experiments)
# Type: functional
# Conditions: not given
# Sequence of Histone deacetylase 1 (Q13547 whole entry): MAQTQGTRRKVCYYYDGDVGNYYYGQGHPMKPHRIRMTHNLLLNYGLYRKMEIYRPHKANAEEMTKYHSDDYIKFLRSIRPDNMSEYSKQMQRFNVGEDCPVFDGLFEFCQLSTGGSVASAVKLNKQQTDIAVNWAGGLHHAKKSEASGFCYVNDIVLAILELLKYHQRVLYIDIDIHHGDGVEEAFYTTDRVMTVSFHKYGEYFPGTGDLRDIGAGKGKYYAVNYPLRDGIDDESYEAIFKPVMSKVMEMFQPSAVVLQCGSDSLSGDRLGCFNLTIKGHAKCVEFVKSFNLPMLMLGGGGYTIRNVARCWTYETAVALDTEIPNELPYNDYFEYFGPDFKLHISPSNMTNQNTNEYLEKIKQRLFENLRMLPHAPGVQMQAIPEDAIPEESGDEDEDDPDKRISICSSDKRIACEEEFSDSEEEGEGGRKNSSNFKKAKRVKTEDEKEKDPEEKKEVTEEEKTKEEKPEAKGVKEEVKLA
row,pIC50,Compound
1,8.05,O=C(NO)c1ccc(-c2ccc(CCNCc3ccccc3)cn2)s1
2,7.51,O=C(NO)c1ccc(-c2ccc(CCNCCc3ccccc3)cn2)s1
3,7.92,O=C(NO)c1ccc(-c2ccc(CNCCc3ccccc3)cn2)s1
4,6.05,O=C(NO)c1ccc(-c2ccccc2)s1
5,5.95,O=C(NO)c1ccc(-c2cccnc2)s1
6,5.90,O=C(NO)c1ccc(-c2ccncc2)s1
7,7.46,CN(Cc1ccccc1)Cc1ccc(-c2ccc(C(=O)NO)s2)nc1
8,7.96,O=C(NO)c1ccc(-c2ccc(CNCCOc3ccccc3)cn2)s1
9,6.73,O=C(NO)c1ccc(-c2ncccn2)s1
10,5.60,O=C(NO)c1ccc(-c2cccs2)s1
11,7.80,O=C(NO)c1ccc(-c2ccc(CNc3ccccc3)cn2)s1
12,6.24,O=C(NO)c1ccc(-c2cccc(CNCCc3ccccc3)n2)s1
13,7.10,O=C(NO)c1ccc(-c2ccc(NCCc3ccccc3)cn2)s1
14,6.44,O=C(NO)c1ccc(-c2cccc(CNCc3ccccc3)n2)s1
15,8.05,O=C(NO)c1ccc(-c2ccc(CNCc3ccc(Cl)cc3)cn2)s1
16,7.52,O=C(NO)c1ccc(-c2ccc(CN3CCc4ccccc4C3)cn2)s1
17,6.61,O=C(NO)c1ccc(-c2ccccn2)s1
18,7.74,O=C(NO)c1ccc(-c2ccc(CNCCCc3ccccc3)cn2)s1

# Test system: MCF7
# Assay: Inhibition of MCF7 cell proliferation (mean of two experiments)
# Type: functional, cell-based
# Conditions: Homo sapiens
row,pIC50,Compound
1,7.10,O=C(NO)c1ccc(-c2ccc(CCNCc3ccccc3)cn2)s1
2,6.85,O=C(NO)c1ccc(-c2ccc(CCNCCc3ccccc3)cn2)s1
3,7.15,O=C(NO)c1ccc(-c2ccc(CNCCc3ccccc3)cn2)s1
4,4.51,O=C(NO)c1ccc(-c2ccccc2)s1
5,6.82,CN(Cc1ccccc1)Cc1ccc(-c2ccc(C(=O)NO)s2)nc1
6,6.96,O=C(NO)c1ccc(-c2ccc(CNCCOc3ccccc3)cn2)s1
7,5.67,O=C(NO)c1ccc(-c2ncccn2)s1
8,< 4.00,O=C(NO)c1ccc(-c2cccs2)s1
9,6.43,O=C(NO)c1ccc(-c2ccc(CNc3ccccc3)cn2)s1
10,5.42,O=C(NO)c1ccc(-c2cccc(CNCCc3ccccc3)n2)s1
11,5.83,O=C(NO)c1ccc(-c2ccc(NCCc3ccccc3)cn2)s1
12,5.72,O=C(NO)c1ccc(-c2cccc(CNCc3ccccc3)n2)s1
13,6.89,O=C(NO)c1ccc(-c2ccc(CNCc3ccc(Cl)cc3)cn2)s1
14,6.66,O=C(NO)c1ccc(-c2ccc(CN3CCc4ccccc4C3)cn2)s1
15,5.65,O=C(NO)c1ccc(-c2ccccn2)s1
16,6.92,O=C(NO)c1ccc(-c2ccc(CNCCCc3ccccc3)cn2)s1
